Assay results as given in the supplement of paper PMC10331698.
± gives the standard deviation of the averaged measurements.

Experiments:
Assay in all cases: level (log10 ratio to DMSO vehicle control); higher = higher biomarker level / cell amount than vehicle control
Details in all cases: in DMSO
Nonafluoropentanamide = compound: NC(=O)C(F)(F)C(F)(F)C(F)(F)C(F)(F)F [Nonafluoropentanamide]
Method: (§1)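 BioMAP Diversity Plus panel of 12 human primary cell co-culture systems (3C, 4H, LPS, SAg, BT, BF4T, BE3C, CASM3C, HDF3CGF, KF3CT, MyoF, Mphg). Compounds were added 1 h before stimulation and left for 24 h (MyoF 48 h; BT 72 h for soluble read-outs or 6 d for IgG). Biomarkers were read by ELISA, cytotoxicity by SRB, PBMC viability and proliferation by Alamar Blue. Each well value was divided by the mean of 8 DMSO control wells on the same plate and log10 transformed; duplicate blinded samples were tested at 4 concentrations.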

[1] = compound: O=C(O)C(F)(F)C(F)(F)C(F)(F)C(F)(F)C(F)(F)C(F)(F)C(F)(F)C(F)(F)C(F)(F)C(F)F [11-H-Perfluoroundecanoic acid]
Method: as §1

Hexafluoroamylene glycol = compound: OCC(F)(F)C(F)(F)C(F)(F)CO [Hexafluoroamylene glycol]
Method: as §1

[2] = compound: O=C(O)C=CC(F)(C(F)(F)F)C(F)(F)F [3-(Perfluoroisopropyl)-2-propenoic acid]
Method: as §1

[3] = compound: O=S(=O)(O)C(F)(F)C(F)(F)C(F)(F)C(F)(F)C(F)(F)C(F)(F)C(F)(F)C(F)(F)C(F)(F)C(F)(F)F [Sodium perfluorodecanesulfonate]
Method: as §1

[4] = compound: FC(F)(F)C(F)(F)CNCC(F)(F)C(F)(F)F [Bis(1H,1H-perfluoropropyl)amine]
Method: as §1

Row | Test System | level (log10) (Nonafluoropentanamide; 6700 nM) | level (log10) (Nonafluoropentanamide; 20000 nM) | level (log10) (Nonafluoropentanamide; 60000 nM) | level (log10) ([1]; 6700 nM) | level (log10) ([1]; 20000 nM) | level (log10) (Hexafluoroamylene glycol; 6700 nM) | level (log10) (Hexafluoroamylene glycol; 20000 nM) | level (log10) (Hexafluoroamylene glycol; 60000 nM) | level (log10) ([2]; 6700 nM) | level (log10) ([2]; 20000 nM) | level (log10) ([2]; 60000 nM) | level (log10) ([3]; 1500 nM) | level (log10) ([3]; 4400 nM) | level (log10) ([3]; 13000 nM) | level (log10) ([3]; 40000 nM) | level (log10) ([4]; 6700 nM) | level (log10) ([4]; 20000 nM) | level (log10) ([4]; 60000 nM)
1 | lMphg:SRB-Mphg | 0.005 ± 0.0085 | -0.005 ± 0.014 | -0.012 ± 0.017 | 0.008 ± 0.011 | -0.0095 ± 0.03 | 0.0005 ± 0.0092 | 0.0035 ± 0.015 | 0.007 ± 0.013 | 0.0005 ± 0.013 | 0.004 ± 0.0085 | 0.0075 ± 0.015 | -0.067 ± 0.12 | -0.0945 ± 0.083 | -0.119 ± 0.053 | -0.057 ± 0.13 | -0.025 ± 0.03 | -0.058 ± 0.023 | -0.0025 ± 0.037
2 | KF3CT:IL-1alpha | 0.012 ± 0.0085 | 0.011 | 0.0095 ± 0.0064 | -0.0255 ± 0.00071 | 0.0105 ± 0.04 | -0.014 ± 0.031 | -0.018 ± 0.0099 | -0.017 ± 0.038 | -0.0025 ± 0.0064 | 0.0025 ± 0.0092 | 0.001 ± 0.017 | 0.0125 ± 0.018 | -0.0295 ± 0.005 | -0.0545 ± 0.0035 | -0.045 ± 0.02 | 0.0045 ± 0.022 | -0.013 ± 0.0014 | 0.0005 ± 0.046
3 | 4H:CCL2/MCP-1 | -0.024 ± 0.017 | -0.017 | -0.004 ± 0.013 | -0.0625 ± 0.021 | -0.0615 ± 0.013 | 0.0255 ± 0.022 | -0.02 ± 0.027 | 0.009 ± 0.0099 | 0.008 ± 0.025 | -0.0105 ± 0.022 | 0.0005 ± 0.0064 | -0.0285 ± 0.0078 | -0.045 ± 0.0057 | -0.0725 ± 0.028 | -0.05 ± 0.0057 | -0.0345 ± 0.012 | -0.035 ± 0.0042 | -0.0105 ± 0.026
4 | HDF3CGF:SRB | 0.024 ± 0.0042 | 0.022 ± 0.011 | 0.0245 ± 0.005 | 0.03 ± 0.0014 | 0.111 ± 0.024 | 0.0095 ± 0.052 | 0.0215 ± 0.06 | 0.02 ± 0.061 | -0.014 ± 0.055 | 0.0205 ± 0.011 | -0.0055 ± 0.022 | 0.014 ± 0.0099 | -0.0075 ± 0.035 | 0.104 ± 0.0092 | 0.198 | -0.0275 ± 0.0078 | 0.008 ± 0.0014 | 0.0145 ± 0.05
5 | MyoF:SRB | -0.003 ± 0.0085 | 0.009 ± 0.0085 | 0.005 ± 0.016 | -0.001 ± 0.0014 | -0.086 ± 0.0028 | 0.002 ± 0.0028 | -0.0045 ± 0.0035 | -0.002 ± 0.0057 | -0.005 ± 0.0014 | -0.0085 ± 0.0035 | 0 ± 0.018 | 0.0205 ± 0.016 | 0.029 ± 0.0042 | 0.0115 ± 0.012 | -0.018 ± 0.0085 | 0 ± 0.0057 | -0.011 ± 0.0057 | -0.011 ± 0.0042
6 | lMphg:CCL3/MIP-1alpha | 0.0025 ± 0.057 | -0.0015 ± 0.06 | 0 ± 0.045 | -0.023 ± 0.023 | -0.027 ± 0.0057 | 0.03 ± 0.072 | -0.0125 ± 0.023 | 0.023 ± 0.034 | -0.031 ± 0.018 | -0.0285 ± 0.016 | -0.0125 ± 0.016 | -0.008 ± 0.025 | 0.0015 ± 0.012 | 0.0195 ± 0.047 | 0.0425 ± 0.0035 | 0.039 ± 0.016 | 0.002 ± 0.014 | -0.009 ± 0.0085
7 | HDF3CGF:Collagen III | 0.033 ± 0.0014 | 0.026 ± 0.0014 | 0.049 ± 0.0099 | -0.172 ± 0.033 | -0.294 ± 0.03 | 0.009 ± 0.051 | 0.0115 ± 0.064 | 0.0515 ± 0.026 | -0.0125 ± 0.00071 | 0.009 ± 0.0014 | 0.033 ± 0.038 | -0.031 ± 0.042 | -0.074 ± 0.025 | 0.054 ± 0.0014 | 0.0205 ± 0.052 | -0.002 ± 0.018 | -0.002 ± 0.0042 | 0.0325 ± 0.036
8 | CASM3C:LDLR | 0.0055 ± 0.059 | -0.035 ± 0.0028 | 0.021 ± 0.072 | -0.0025 ± 0.005 | -0.006 ± 0.0099 | -0.007 ± 0.013 | -0.0095 ± 0.019 | 0.024 ± 0.037 | -0.006 ± 0.017 | -0.0045 ± 0.00071 | 0.008 ± 0.017 | 0.0155 ± 0.028 | -0.015 | -0.0425 ± 0.018 | -0.0055 ± 0.035 | -0.005 ± 0.0099 | -0.0065 ± 0.0021 | -0.001 ± 0.025
9 | KF3CT:MMP-9 | -0.039 ± 0.027 | -0.0195 ± 0.0021 | -0.0245 ± 0.011 | -0.0735 ± 0.011 | -0.298 ± 0.0071 | -0.0145 ± 0.005 | -0.011 ± 0.025 | -0.0155 ± 0.0035 | -0.0175 ± 0.016 | 0.006 ± 0.0071 | 0.018 ± 0.014 | -0.01 ± 0.0085 | -0.0325 ± 0.0078 | -0.0735 ± 0.012 | -0.139 ± 0.036 | -0.024 ± 0.0071 | -0.013 ± 0.035 | 0.001 ± 0.042
10 | KF3CT:PAI-I | -0.042 ± 0.0099 | -0.0205 ± 0.036 | -0.0375 ± 0.00071 | -0.0025 ± 0.03 | -0.12 ± 0.044 | 0.002 ± 0.016 | -0.0055 ± 0.005 | 0.013 | 0.0045 ± 0.0092 | 0.023 ± 0.0085 | 0.0165 ± 0.0021 | -0.0085 ± 0.046 | -0.021 ± 0.013 | -0.0415 ± 0.0035 | -0.0715 ± 0.028 | -0.008 ± 0.03 | -0.0005 ± 0.005 | 0 ± 0.0042
11 | CASM3C:CCL2/MCP-1 | -0.014 ± 0.0028 | 0.001 ± 0.0099 | -0.001 ± 0.0014 | 0.0005 ± 0.0035 | 0.012 ± 0.024 | -0.0085 ± 0.0064 | -0.014 ± 0.011 | 0.012 ± 0.047 | 0.007 ± 0.017 | -0.0055 ± 0.011 | 0.023 ± 0.044 | -0.022 ± 0.023 | -0.024 ± 0.0028 | 0.0115 ± 0.026 | 0.0095 ± 0.0064 | -0.0065 ± 0.013 | -0.0205 ± 0.015 | -0.0055 ± 0.04
12 | HDF3CGF:TIMP-2 | -0.0315 ± 0.016 | 0.0165 ± 0.06 | 0.0025 ± 0.091 | -0.0675 ± 0.046 | -0.103 ± 0.025 | -0.0205 ± 0.029 | -0.024 ± 0.014 | 0.0025 ± 0.032 | -0.0105 ± 0.0021 | -0.0045 ± 0.011 | -0.0115 ± 0.012 | -0.026 ± 0.11 | 0.0395 ± 0.0035 | 0.005 ± 0.052 | -0.085 ± 0.089 | -0.005 ± 0.017 | -0.0085 ± 0.033 | 0.022 ± 0.0014
13 | BE3C:MMP-1 | 0.003 ± 0.0071 | 0.052 ± 0.075 | 0.0795 ± 0.023 | 0.068 ± 0.013 | -0.132 ± 0.012 | -0.009 ± 0.017 | -0.03 ± 0.0057 | 0.015 ± 0.025 | 0.0495 ± 0.06 | 0.034 ± 0.061 | 0.085 ± 0.0028 | -0.0225 ± 0.053 | 0.0585 ± 0.059 | 0.239 ± 0.011 | 0.153 ± 0.0071 | -0.0145 ± 0.026 | -0.014 ± 0.011 | 0.0185 ± 0.049
14 | lMphg:CD106/VCAM-1 | -0.0255 ± 0.033 | 0.0065 ± 0.028 | -0.012 ± 0.028 | -0.0065 ± 0.0035 | 0.014 ± 0.023 | -0.0185 ± 0.012 | -0.014 ± 0.0057 | -0.0175 ± 0.0092 | 0.001 ± 0.024 | 0.0125 ± 0.005 | 0.002 ± 0.034 | -0.0065 ± 0.012 | -0.0215 ± 0.018 | -0.021 ± 0.0071 | -0.0515 ± 0.0078 | 0.0135 ± 0.011 | 0.0055 ± 0.0092 | 0.0075 ± 0.0035
15 | lMphg:IL-1alpha | 0.0035 ± 0.047 | -0.0325 ± 0.047 | -0.017 ± 0.048 | -0.024 ± 0.024 | -0.008 ± 0.0014 | 0.005 ± 0.02 | 0.015 ± 0.027 | 0.029 ± 0.061 | -0.0055 ± 0.037 | 0.0095 ± 0.016 | -0.0025 ± 0.012 | 0.0345 ± 0.021 | -0.002 ± 0.028 | 0.032 ± 0.013 | 0.0505 ± 0.03 | -0.025 ± 0.0071 | -0.031 ± 0.0057 | 0.0295 ± 0.059
16 | 4H:CD87/uPAR | -0.032 ± 0.0071 | 0.0085 ± 0.005 | 0.009 ± 0.041 | -0.0115 ± 0.033 | -0.0295 ± 0.05 | 0.0015 ± 0.0021 | -0.0205 ± 0.037 | -0.027 ± 0.023 | 0.034 ± 0.016 | 0.055 ± 0.054 | 0.105 ± 0.027 | 0.0235 ± 0.056 | 0.0145 ± 0.022 | 0.0455 ± 0.0064 | 0.0065 ± 0.013 | -0.0665 ± 0.029 | -0.027 ± 0.035 | -0.047 ± 0.064
